Source: patent publication US20060122175A1, “Benzdioxane piperazine derivatives with a combination of affinity for dopamine-D2 receptors and serotonin reuptake sites” (SOLVAY PHARMACEUTICALS B.V., priority 2004, published 2006)
Counter-ions that a name gives are not always drawn.

How the values were obtained:
dopamine-D2 receptors = target: T1, dopamine-D2 receptors (Rattus norvegicus, UniProt P61169); assay: In vitro affinity for dopamine-D2 receptors ([3H]-spiroperidol receptor binding assay); conditions: average values from three independent experiments
T1 construct: labels dopamine receptors in rat pituitary and brain; from tissue; host or cells: rat pituitary and brain (per the title of the cited method)
Protocol: The affinity of the compounds of the invention for dopamine-D2 receptors and serotonine reuptake sites was determined as described above. […] Pharmacokinetic, pharmacodynamic, and other considerations may alter the dose actually administered to a higher or lower value. The dosage expediently administered is 0.001-1000 mg/kg, preferably 0.1-100 mg/kg of patient's bodyweight.
(§1) The results in the table below were obtained according to the methods described above. Binding data are average values from three independent experiments.

dopamine D2 receptors = assay: Antagonism of apomorphine-induced climbing behaviour in mice (APO-climb); conditions: Mus musculus, po, read-out: in vivo activity Dopamine-D2 APO-climb* ED50 mg/kg po
serotonin reuptake = assay: Potentiation of 5-HTP induced behaviour in mice; conditions: Mus musculus, po, read-out: in vivo activity 5-HT reuptake 5-HTP** ED50 mg/kg po
From the text: The compounds show activity as antagonists at dopamine D2 receptors as they potentially antagonize apomorphine-induced climbing behaviour in mice (B. Costall et al., ‘Climbing behaviour induced by apomorphine in mice: a potential model for the detection of neuroleptic activity’, Eur. J. Pharmacol., 1978, 1, 39-50). The compounds also show activity as inhibitors of serotonin reuptake, as they potentiate 5-HTP induced behaviour in mice (B. L. Jacobs., ‘An animal behaviour model for studying central serotonergic synapses’, Life Sci., 1976, 19(6), 777-785). The compounds are active in therapeutic models sensitive to clinically relevant antipsychotics (e.g. the conditioned avoidance response; Van der Heyden & Bradford, Behav. Brain Res., 1988, 31:61-67) and antidepressants or anxiolytics (e.g. suppression of stress-induced vocalization; van der Poel et al., Psychopharmacology, 1989, 97: 147-148). In contrast to clinically relevant dopamine D2 receptor antagonists the described compounds have a low propensity to induce catalepsy in rodents and as such are likely to induce less extrapyramidal side effects than existing antipsychotic agents. The inhibitory activity of serotonin reuptake inherent in these compounds may be responsible for the therapeutic effects observed in behavioural models sensitive to either antidepressants or anxiolytics. The compounds can be used for the treatment of affections or diseases of the central nervous system caused by disturbances in either the dopaminergic or serotonergic systems, for example: aggression, anxiety disorders, autism, vertigo, depression, disturbances of cognition or memory, Parkinson's disease, and in particular schizophrenia and other psychotic disorders.

serotonin reuptake sites = target: T2, serotonin reuptake sites (Rattus norvegicus, UniProt P31652); assay: In vitro affinity for serotonin reuptake sites ([3H]-paroxetine receptor binding assay); conditions: average values from three independent experiments; read-out: in vitro affinity 5-HT reuptake binding Ki
T2 construct: from tissue; host or cells: rat cortical membranes (per the title of the cited method)
Protocol: The affinity of the compounds of the invention for dopamine-D2 receptors and serotonine reuptake sites was determined as described above. From the binding affinity measured for a given compound of formula (1), one can estimate a theoretical lowest effective dose. […] Converting that concentration to mg of compound per kg of patient yields a theoretical lowest effective dose, assuming ideal bioavailability. Pharmacokinetic, pharmacodynamic, and other considerations may alter the dose actually administered to a higher or lower value. The dosage expediently administered is 0.001-1000 mg/kg, preferably 0.1-100 mg/kg of patient's bodyweight.
as §1

T1 sequence (P61169 whole entry): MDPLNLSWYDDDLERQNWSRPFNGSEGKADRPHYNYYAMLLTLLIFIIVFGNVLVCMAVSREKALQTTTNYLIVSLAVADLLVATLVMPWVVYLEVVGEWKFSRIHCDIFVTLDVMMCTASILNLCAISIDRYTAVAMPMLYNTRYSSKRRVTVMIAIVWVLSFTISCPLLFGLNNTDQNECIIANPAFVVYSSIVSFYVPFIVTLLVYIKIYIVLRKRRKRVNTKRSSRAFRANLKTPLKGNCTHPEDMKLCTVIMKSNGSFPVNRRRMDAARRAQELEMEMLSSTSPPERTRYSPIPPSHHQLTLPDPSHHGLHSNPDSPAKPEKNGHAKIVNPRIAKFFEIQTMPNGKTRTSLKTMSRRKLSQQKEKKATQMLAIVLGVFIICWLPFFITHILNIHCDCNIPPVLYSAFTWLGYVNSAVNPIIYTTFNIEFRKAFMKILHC
T2 sequence (P31652 whole entry): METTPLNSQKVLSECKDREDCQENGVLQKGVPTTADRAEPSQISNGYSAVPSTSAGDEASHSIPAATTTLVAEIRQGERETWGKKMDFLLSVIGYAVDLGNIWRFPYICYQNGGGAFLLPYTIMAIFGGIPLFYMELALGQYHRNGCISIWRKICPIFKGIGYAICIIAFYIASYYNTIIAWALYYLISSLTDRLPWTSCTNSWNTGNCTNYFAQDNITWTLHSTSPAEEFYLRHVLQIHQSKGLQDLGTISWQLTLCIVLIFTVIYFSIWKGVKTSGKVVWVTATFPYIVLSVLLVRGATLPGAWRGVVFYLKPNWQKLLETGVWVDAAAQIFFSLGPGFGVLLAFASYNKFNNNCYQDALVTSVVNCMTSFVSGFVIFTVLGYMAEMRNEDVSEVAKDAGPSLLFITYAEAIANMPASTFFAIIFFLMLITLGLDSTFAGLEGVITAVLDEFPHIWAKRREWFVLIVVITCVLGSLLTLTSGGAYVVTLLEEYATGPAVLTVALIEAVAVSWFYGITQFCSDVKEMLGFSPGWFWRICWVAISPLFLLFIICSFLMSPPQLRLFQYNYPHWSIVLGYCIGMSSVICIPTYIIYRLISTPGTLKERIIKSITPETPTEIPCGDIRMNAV

Structure (SMILES) | melting point | Ki (dopamine-D2 receptors) [nM] | ED50 (serotonin reuptake) [mg/kg] | further results
Fc1cccc2[nH]cc(CCCN3CCN(c4cccc5c4OCCO5)CC3)c12 [Compound 5d, 3-{3-[4-(2,3-Dihydro-benzo[1,4]dioxin-5-yl)-piperazin-1-yl]-propyl}-4-fluoro-1H-indole] | 207 to 208 °C | 8.1 ± 3.1 | 32 | ED50 (dopamine D2 receptors): 13 mg/kg
Fc1ccc2c(CCCN3CCN(c4cccc5c4OCCO5)CC3)c[nH]c2c1 (as salt: fumaric acid salt) [Compound 5f, 3-{3-[4-(2,3-Dihydro-benzo[1,4]dioxin-5-yl)-piperazin-1-yl]-propyl}-6-fluoro-1H-indole] | 205 to 206 °C | – | – | –
Cc1ccc2[nH]cc(CCCN3CCN(c4cccc5c4OCCO5)CC3)c2c1 [Compound 5m, 3-{3-[4-(2,3-Dihydro-benzo[1,4]dioxin-5-yl)-piperazin-1-yl]-propyl}-5-methyl-1H-indole] | – | – | – | Ki (serotonin reuptake sites): 1.3 ± 0.9 nM
COc1ccc2[nH]cc(CCCN3CCN(c4cccc5c4OCCO5)CC3)c2c1 [Compound 5h, 3-{3-[4-(2,3-Dihydro-benzo[1,4]dioxin-5-yl)-piperazin-1-yl]-propyl}-5-methoxy-1H-indole] | – | 5 ± 4 | – | –
Clc1ccc2[nH]cc(CCCN3CCN(c4cccc5c4OCCO5)CC3)c2c1 (as salt: fumaric acid salt) [Compound 5j, 3-{3-[4-(2,3-Dihydro-benzo[1,4]dioxin-5-yl)-piperazin-1-yl]-propyl}-5-chloro-1H-indole] | 61 to 63 °C | – | – | –
Fc1cccc2c(CCCN3CCN(c4cccc5c4OCCO5)CC3)c[nH]c12 [Compound 5g, 3-{3-[4-(2,3-Dihydro-benzo[1,4]dioxin-5-yl)-piperazin-1-yl]-propyl}-7-fluoro-1H-indole] | – | 10.6 ± 4 | 28.4 | –
Fc1ccc2c(CCCN3CCN(c4cccc5c4OCCO5)CC3)c[nH]c2c1 [Compound 5f, 3-{3-[4-(2,3-Dihydro-benzo[1,4]dioxin-5-yl)-piperazin-1-yl]-propyl}-6-fluoro-1H-indole] | – | – | 30 | ED50 (dopamine D2 receptors): 9 mg/kg
c1cc2c(c(N3CCN(Cc4c[nH]c5ccccc45)CC3)c1)OCCO2 [Compound 5a, 3-[4-(2,3-Dihydro-benzo[1,4]dioxin-5-yl)-piperazin-1-yl-methyl]-1H-indole] | 85 to 86 °C | – | – | –
Fc1ccc2[nH]cc(CCCN3CCN(c4cccc5c4OCCO5)CC3)c2c1 [Compound 5e, 3-{3-[4-(2,3-Dihydro-benzo[1,4]dioxin-5-yl)-piperazin-1-yl]-propyl}-5-fluoro-1H-indole] | – | 19 ± 3 | 2 | –
c1cc2c(c(N3CCN(CCCCCc4c[nH]c5ccccc45)CC3)c1)OCCO2 [Compound 5c, 3-{5-[4-(2,3-Dihydro-benzo[1,4]dioxin-5-yl)-piperazin-1-yl]-pentyl}-1H-indole] | – | 9.1 ± 1.8 | – | –
Clc1cccc2[nH]cc(CCCN3CCN(c4cccc5c4OCCO5)CC3)c12 [Compound 5i, 3-{3-[4-(2,3-Dihydro-benzo[1,4]dioxin-5-yl)-piperazin-1-yl]-propyl}-4-chloro-1H-indole] | – | 24 ± 3 | – | –
c1cc2c(c(N3CCN(CCCc4c[nH]c5ccccc45)CC3)c1)OCCO2 [Compound 5b, 3-{3-[4-(2,3-Dihydro-benzo[1,4]dioxin-5-yl)-piperazin-1-yl]-propyl}-1H-indole] | 150 to 152 °C | 21 ± 9.9 | 22 | ED50 (dopamine D2 receptors): 10 mg/kg

Second part, led by results:

melting point | Ki (dopamine-D2 receptors) [nM] | Structure (SMILES) | ED50 (serotonin reuptake) [mg/kg] | further results
– | 20.3 ± 2.7 | c1cc2c(c(N3CCN(CCCc4c[nH]c5ccccc45)CC3)c1)CCCO2 [Compound 14, 3-[3-(4-chroman-5-yl-piperazine-1-yl)-propyl]-1H-indole] | – | –
– | 15.5 ± 5.4 | Clc1cccc2c(CCCN3CCN(c4cccc5c4OCCO5)CC3)c[nH]c12 [Compound 5l, 3-{3-[4-(2,3-Dihydro-benzo[1,4]dioxin-5-yl)-piperazin-1-yl]-propyl}-7-chloro-1H-indole] | – | –
– | 2.1 ± 1 | Clc1ccc2c(CCCN3CCN(c4cccc5c4OCCO5)CC3)c[nH]c2c1 [Compound 5k, 3-{3-[4-(2,3-Dihydro-benzo[1,4]dioxin-5-yl)-piperazin-1-yl]-propyl}-6-chloro-1H-indole] | 86 | ED50 (dopamine D2 receptors): 4.5 mg/kg
215 to 217 °C (dec.) | – | Cc1ccc2[nH]cc(CCCN3CCN(c4cccc5c4OCCO5)CC3)c2c1 (as salt: fumaric acid salt) [Compound 5m, 3-{3-[4-(2,3-Dihydro-benzo[1,4]dioxin-5-yl)-piperazin-1-yl]-propyl}-5-methyl-1H-indole] | – | –
– | 15.9 ± 4.7 | Cc1cccc2c(CCCN3CCN(c4cccc5c4OCCO5)CC3)c[nH]c12 [Compound 5n, 3-{3-[4-(2,3-Dihydro-benzo[1,4]dioxin-5-yl)-piperazin-1-yl]-propyl}-7-methyl-1H-indole] | – | –
– | 31.6 ± 16 | Clc1ccc2[nH]cc(CCCN3CCN(c4cccc5c4OCCO5)CC3)c2c1 [Compound 5j, 3-{3-[4-(2,3-Dihydro-benzo[1,4]dioxin-5-yl)-piperazin-1-yl]-propyl}-5-chloro-1H-indole] | – | Ki (serotonin reuptake sites): 1.4 ± 0.7 nM
